Experimental data published in US20240122834A1, “MEDICAMENT FOR PREVENTION AND TREATMENT OF HYPERPIGMENTATION” (SYMRISE AG, priority 2021, published 2024).

Tested on: tyrosinase activity in B16 melanoma cells
Test: Tyrosinase activity in B16 melanoma cells (lysate, L-dopa to dopachrome, absorbance 475 nm)
Type: cell-based
Details: B16 cells treated for 3 days, untreated control = 100
Text: Tyrosinase is an oxidase that is the rate-limiting enzyme for controlling the production of melanin. The enzyme is mainly involved in two distinct reactions of melanin synthesis; firstly, the hydroxylation of a monophenol and secondly, the conversion of an o-diphenol to the corresponding o-quinone. o-quinone undergoes several reactions to eventually form melanin Tyrosinase is a copper-containing enzyme present in plant and animal tissues that catalyzes the production of melanin and other pigments from tyrosine by oxidation. It is found inside melanosomes which are synthesized in the skin melanocytes. In humans, the tyrosinase enzyme is encoded by the TYR gene.
To measure the tyrosinase activity of the cells, the B16 cells treated for 3 days with several doses of compounds were lysed by incubation at 4° C. for 30 min in lysis buffer (20 mM sodium phosphate, pH 6.8, 1% Triton X-100, 1 mM PMSF, 1 mM EDTA) containing protease inhibitors cocktail. The lysates were centrifuged at 15,000×g for 10 min to obtain the supernatant as the source of tyrosinase. The reaction mixture contained 20 mM phosphate buffer, pH 6.8, 1.25 mM L-dopa (Sigma-Aldrich). After incubation at 37° C. for 2 h, dopachrome formation was monitored by measuring absorbance at a wavelength of 475 nm in a microplate reader (TECAN).

Structure (SMILES)	Tyrosinase Activation (sample conc. 1 μg/ml) [%]	Tyrosinase Activation (sample conc. 10 μg/ml) [%]	further results
CCCCCc1cc(O)c(C/C=C(\C)CCC=C(C)C)c(O)c1 [(−) CBG]	55	–	Tyrosinase Activation (sample conc. 0.5 μg/ml): 62%
CCCCCCCCCCCC=O [Aldehyde C12]	82	–	Tyrosinase Activation (sample conc. 0.1 μg/ml): 78%
C=CCOC(=O)COc1ccccc1 [Allyl phenoxyacetate]	62	50	Tyrosinase Activation (sample conc. 50 μg/ml): 48%
O=Cc1ccccc1 [Benzaldehyde]	–	75	–
CC(=O)CCc1ccccc1 [Benzyl acetone]	–	–	Tyrosinase Activation (sample conc. 5 μg/ml): 90%; Tyrosinase Activation (sample conc. 25 μg/ml): 80%; Tyrosinase Activation (sample conc. 100 μg/ml): 90%
CC(C)=CCC(C)(C)C(=O)C(C)C [Claritone]	–	–	Tyrosinase Activation (sample conc. 2.5 μg/ml): 70%
C=CCOC(=O)COC1CCCCC1 [Cyclogalbanate]	–	73	–
CC(=O)OC1CC(C)CC(C)(C)C1 (stereo not shown) [Mintonat, Homomenthyl acetate]	80	–	–
COC(Cc1ccccc1)OC [Phenyl acetaldehyde dimethyl acetal]	–	80	Tyrosinase Activation (sample conc. 100 μg/ml): 78%
